The values that follow come from PMC2642990, “The Glycogen-Binding Domain on the AMPK β Subunit Allows the Kinase to Act as a Glycogen Sensor” (Cell Metabolism, 2009).

The target in assay [1] is T1, LKB1 (Homo sapiens, UniProt Q15831).
T1 sequence (Q15831 1-433): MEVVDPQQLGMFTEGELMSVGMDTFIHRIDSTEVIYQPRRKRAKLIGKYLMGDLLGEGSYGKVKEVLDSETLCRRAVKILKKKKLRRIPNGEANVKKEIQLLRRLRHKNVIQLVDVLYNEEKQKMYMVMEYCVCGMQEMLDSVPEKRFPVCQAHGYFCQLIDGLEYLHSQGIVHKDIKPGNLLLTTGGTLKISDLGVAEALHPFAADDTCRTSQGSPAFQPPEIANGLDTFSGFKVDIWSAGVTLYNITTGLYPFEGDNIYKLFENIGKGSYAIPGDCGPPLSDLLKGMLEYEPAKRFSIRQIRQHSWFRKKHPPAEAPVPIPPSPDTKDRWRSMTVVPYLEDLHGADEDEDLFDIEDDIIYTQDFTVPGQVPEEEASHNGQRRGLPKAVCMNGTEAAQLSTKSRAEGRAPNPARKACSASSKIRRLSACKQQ
T1 sequence (Q7RTN6 1-431 partner): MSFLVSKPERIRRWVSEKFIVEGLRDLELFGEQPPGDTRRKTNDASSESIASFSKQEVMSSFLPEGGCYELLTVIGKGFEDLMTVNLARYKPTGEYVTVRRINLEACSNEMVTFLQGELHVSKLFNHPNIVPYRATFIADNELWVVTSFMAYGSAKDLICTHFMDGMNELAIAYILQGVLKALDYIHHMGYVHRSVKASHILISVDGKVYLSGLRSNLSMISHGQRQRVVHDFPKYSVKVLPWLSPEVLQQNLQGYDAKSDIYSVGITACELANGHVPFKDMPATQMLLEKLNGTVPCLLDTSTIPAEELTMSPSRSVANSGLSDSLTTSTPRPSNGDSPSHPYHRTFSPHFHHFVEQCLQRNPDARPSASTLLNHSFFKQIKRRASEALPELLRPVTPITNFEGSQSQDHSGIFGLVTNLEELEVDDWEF
T1 sequence (Q9Y376 1-341 partner): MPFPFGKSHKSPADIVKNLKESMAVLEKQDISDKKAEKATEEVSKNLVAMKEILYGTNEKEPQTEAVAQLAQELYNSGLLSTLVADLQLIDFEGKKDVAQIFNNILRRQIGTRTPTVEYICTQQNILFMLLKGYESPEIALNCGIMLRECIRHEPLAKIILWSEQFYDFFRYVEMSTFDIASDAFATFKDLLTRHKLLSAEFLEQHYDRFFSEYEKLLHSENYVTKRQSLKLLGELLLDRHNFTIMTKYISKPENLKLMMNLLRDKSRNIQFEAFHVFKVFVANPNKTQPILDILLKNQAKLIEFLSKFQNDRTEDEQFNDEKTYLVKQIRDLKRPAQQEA
The assay can be described thus: phosphorylation of synthetic peptide substrate LKBtide by LKB1. Format: biochemical. The following applies: 1 mM oligosaccharide. The text has this:
(§1) The inhibitory effects observed to this point represent allosteric inhibition, i.e., direct effects on the activity of the AMPK kinase domain of carbohydrate binding at a different site, i.e., the GBD on the β subunit. It was important to establish whether carbohydrates might also affect phosphorylation and dephosphorylation by upstream kinases and phosphatases. […] To confirm that the latter was not an effect on LKB1, we tested the effect of the oligosaccharide on phosphorylation of a synthetic peptide substrate, i.e., LKBtide ([Lizcano et al., 2004]).
Figure 7 Effect of Oligosaccharide Number 5, See Figure 6, on Dephosphorylation of AMPK by PP2Cα and on Phosphorylation by CaMKKβ and LKB1 (A) Effect of oligosaccharide on dephosphorylation by PP2Cα. Rat liver AMPK was incubated with PP2Cα in the presence and absence of 1 mM oligosaccharide; at various times, levels of total α subunit and phosphorylation on Thr-172 were assessed by western blotting. (B) Quantification of results as in (A); means ± SEM of two experiments. (C) Effect of oligosaccharide on phosphorylation by CaMKKβ. […] At various times, levels of total α subunit and of phosphorylation on Thr-172 were assessed by western blotting. (D) Quantification of results as in (C); means ± SEM (n = 2). […] IC50 values were determined as in Figure 2A and curves generated from the best-fit parameters. […]

Assay [2] relates to dephosphorylation of purified rat liver AMPK by protein phosphatase-2Cα (PPM1A). The assay can be described thus: dephosphorylation of rat liver AMPK by PP2Cα, western blotting of pThr-172. To be noted: 1 mM oligosaccharide. Format: biochemical. Here is the method: (§2) Figure 7 Effect of Oligosaccharide Number 5, See Figure 6, on Dephosphorylation of AMPK by PP2Cα and on Phosphorylation by CaMKKβ and LKB1 (A) Effect of oligosaccharide on dephosphorylation by PP2Cα. Rat liver AMPK was incubated with PP2Cα in the presence and absence of 1 mM oligosaccharide; at various times, levels of total α subunit and phosphorylation on Thr-172 were assessed by western blotting. (B) Quantification of results as in (A); means ± SEM of two experiments. (C) Effect of oligosaccharide on phosphorylation by CaMKKβ. Rat liver AMPK was dephosphorylated using PP1, okadaic acid was added to inhibit the phosphatase, and the protein was incubated with MgATP and CaMKKβ in the presence and absence of 1 mM oligosaccharide. At various times, levels of total α subunit and of phosphorylation on Thr-172 were assessed by western blotting. (D) Quantification of results as in (C); means ± SEM (n = 2). (E) Time course of effect of oligosaccharide on phosphorylation by LKB1, performed as in (C) but with LKB1 in place of CaMKKβ. (F) Effect of oligosaccharide on phosphorylation of a synthetic peptide substrate of LKB1 (mean ± SD; n = 2). (G) Inhibition of AMPK by bovine liver glycogen, a phosphorylase limit dextrin, and a mock-treated sample. IC50 values were determined as in Figure 2A and curves generated from the best-fit parameters. […]

In assay [3] the test system is dephosphorylation of AMPK by protein phosphatase-1. The assay can be described thus: dephosphorylation of AMPK by catalytic subunit of protein phosphatase-1. The following applies: data not shown. Format: biochemical, rat.
Description: as §1

The test system of assay [4] is phosphorylation of Thr-172 by LKB1. The experiment in a line: phosphorylation of Thr-172 of rat liver AMPK by LKB1. Format: biochemical. To be noted: 1 mM oligosaccharide. Here is the method: as §2
Assay [5] relates to phosphorylation of Thr-172 by CaMKKβ. The experiment in a line: phosphorylation of Thr-172 of rat liver AMPK by CaMKKβ. To be noted: 1 mM oligosaccharide. Format: biochemical. Here is the method: as §2

With `CO[C@H]1O[C@H](CO[C@H]2O[C@H](CO)[C@@H](O[C@H]3O[C@H](CO)[C@@H](O)[C@H](O)[C@H]3O)[C@H](O)[C@H]2O)[C@@H](O)[C@H](O)[C@H]1O` [Oligosaccharide 5, Glcα1→4Glcα1→6Glcα-OMe], the “inhibition of LKBtide phosphorylation” value in assay [1] is “no significant inhibition”. In addition, in assay [2], the “effect on dephosphorylation by PP2Cα” value is “no significant effect”. In addition, the “effect on dephosphorylation by protein phosphatase-1” value in assay [3] was “negative results”. Further, the “extent of inhibition of phosphorylation of the rat liver αβγ complex by LKB1” value in assay [4] (Figure 7E) is listed as “essentially complete”. Besides, the “inhibition of phosphorylation of Thr-172 by LKB1” value in assay [4] (time course) is on record as “marked inhibition”. Moreover, the “inhibition of phosphorylation of Thr-172 by CaMKKβ” value in assay [5] was “marked inhibition”.
